Assay: Concentrations of chemopreventive compounds and metabolites in dog serum by LC-MS/MS
Type: in vivo
Experimental: Serum was isolated from whole blood obtained during the two phases of the trial and analysed by LC-MS/MS.
Whole blood (6 ml) was collected from each canine subject at the end of the first and second phases of the study. Blood was obtained by venipuncture from either the cephalic or jugular vein (typically with an 18-20 gauge needle attached to a 10 ml syringe). Manual restraint and aseptic techniques were used. The blood from each dog was placed in labelled collection tubes (2 ml in lavender EDTA collection tubes, 1 ml in green lithium heparin collection tubes, and 3 ml in red silicone coated tubes). The lavender tubes were inverted and used to run Complete Blood Counts (CBC) and for isolation of lymphocytes, the green tubes were inverted and used to run Comprehensive Chemistry Blood Profiles (CCBP), and the blood within the red tubes were allowed to clot, and then centrifuged for 15 min at 3400 rpm to obtain serum. The serum was frozen prior to analysis by LC-MS/MS. The CBC and CCBPs were run on Abaxis™ VetScan machines, particularly the VS2 and HMS.
Liquid-liquid extraction was used to prepare dog serum for mass spectrometric analysis. Briefly, 300 μl of serum was mixed with 900 μl of ice-cold acetonitrile. Each sample was vortex mixed for 20 sec and then centrifuged for 10 min at 13,000×g. The supernatant was removed and evaporated to dryness under a stream of nitrogen, and each extract was reconstituted in 100 μl of acetonitrile/water (20:80, v/v) prior to analysis using LC-MS/MS.
Both instruments were equipped with negative ion electrospray and interfaced to Shimadzu HPLC systems (Prominence Ark. or Nexera, respectively). A Waters (Milford, Mass.) XBridge C18 column (2.1×100 mm; 2.5 μm) was used for chromatographic separations. The solvent system consisted of a 5-min linear gradient from 10% to 90% acetonitrile in water at a flow rate of 400 μl/min. The injection volume was 10 μl.
For quantitative analysis, selected reaction monitoring (SRM) was used with collision-induced dissociation and argon as the collision gas. Deprotonated molecules of each analyte were used as precursor ions, and the SRM transitions of the two most abundant product ions were selected as quantifiers and qualifiers, respectively. In some cases, only one SRM transition (quantifier) was used due to the low abundances of other fragment ions. […] The SRM transitions for genistein were m/z 269 to 89 and m/z 269 to 187, and the SRM transitions for genistein glucuronide and genistein sulfate were m/z 445 to 269 and m/z 349 to 269, respectively. Quercetin was measured using the SRM transitions of m/z 301 to 151 and m/z 301 to 179, and its glucuronide and sulfate metabolites were monitored using the transitions of m/z 477 to 301 and m/z 381 to 301, respectively. Synthetic isopentyl naringenin was used as an internal standard (SRM transition m/z 341 to 119).

| concentration at 3 weeks (dog, in vivo) | Structure (SMILES) | detection in dog serum (in words) (dog, in vivo) | also measured |
| --- | --- | --- | --- |
| 44.4 ± 12.2 ng/mL | O=S(=O)(O)Oc1ccc(/C=C/c2cc(O)cc(O)c2)cc1 [trans-Resveratrol-4′-sulfate] |  |  |
| 19.3 ± 11 ng/mL | Oc1ccc(C=Cc2cc(O)cc(O)c2)cc1 [Resveratrol] |  |  |
| 13.6 ± 5.27 ng/mL | O=S(=O)(O)Oc1cc(O)cc(/C=C\c2ccc(O)cc2)c1 [cis-Resveratrol-3-sulfate] |  |  |

More lines, now with the values behind:

| Structure (SMILES) | concentration at 3 weeks (dog, in vivo) | detection in dog serum (in words) (dog, in vivo) | also measured |
| --- | --- | --- | --- |
| O=c1c(-c2ccc(O)cc2)coc2cc(O)cc(O)c12 [Genistein] |  |  | detection in dog serum (in words) (second phase, after 3 weeks of two biscuits/day): no unconjugated genistein was detected |
| O=S(=O)(O)Oc1cc(O)cc(C=Cc2ccc(O)cc2)c1 [resveratrol-3-sulfate] |  | most abundant form of resveratrol in dog serum |  |
| O=c1c(O)c(-c2ccc(O)c(O)c2)oc2cc(O)cc(O)c12 [Quercetin] |  |  | Concentration in serum, Second phase (dog, in vivo, 3 weeks): 2 ± 1 ng/mL |
| COc1cc(/C=C/C(=O)CC(=O)/C=C/c2ccc(O[C@@H]3O[C@H](C(=O)O)[C@@H](O)[C@H](O)[C@H]3O)c(OC)c2)ccc1O [Curcumin glucuronide] |  | detected at low levels in serum of two dogs |  |
| O=c1oc2c(O)c(O)cc3c(=O)oc4c(O)c(O)cc1c4c23 [Ellagic acid] |  | No ellagic acid or curcumin was detected in serum |  |
